From patent US9994758B2, “Microbial metabolism of chlorine oxyanions as a control of biogenic hydrogen sulfide production” (The Regents of the University of California, priority 2011, dated 2018)

Columns and labels:
Desulfovibrio vulgaris = assay: Inhibition of sulfidogenesis by sulfate-reducing bacteria (D. vulgaris culture, lactate/sulfate medium); assay type: cell-based
Method: Twelve tubes of basal anaerobic medium containing 15 mM lactate and 15 mM sulfate were inoculated with an active culture of D. vulgaris and incubated for 6 hours at 30° C., until a visible increase in optical density was observed. After six hours, the tubes were further inoculated with A. suillum and 15 mM chlorate prior to incubation overnight at 30° C., as outlined in Table 2.

[1] = system: marine sediment slurry microcosms; assay: Sulfide inhibition in marine sediment slurry microcosms; assay type: cell-based; conditions: addition of chlorate and Dechloromarinus strain NSS, extended incubation for over 250 hours
From the text: In the absence of chlorate and Dechloromarinus strain NSS sulfide is readily produced.

[O-][Cl+2]([O-])O [chlorate]
sulfide production by D. vulgaris relative to control cells incubated without chlorate (Desulfovibrio vulgaris; 15 mM chlorate alone, 24 hours, 30° C., 15 mM lactate and 15 mM sulfate): 49% | sulfide production by D. vulgaris relative to control cells incubated in the absence of A. suillum and chlorate (Desulfovibrio vulgaris; 15 mM chlorate together with A. suillum, 24-hour incubation, 30° C., 15 mM lactate and 15 mM sulfate): 17% | antimicrobial activity against D. vulgaris (Desulfovibrio vulgaris; chlorate at relatively low concentrations (15 mM)): has antimicrobial activity against D. vulgaris | time course of sulfidogenesis by D. vulgaris (FIG. 6) (Desulfovibrio vulgaris; treated with A. suillum (PS) and chlorate at 48 hours, relative to untreated control): immediate inhibition of sulfide production and removal of sulfide from the medium | sulfide production in marine sediment slurry microcosms (FIG. 4) [1]: sulfide inhibition
